The results in this text go back to paper PMC5362455, “Molecularly targeted co-delivery of a histone deacetylase inhibitor and paclitaxel by lipid-protein hybrid nanoparticles for synergistic combinational chemotherapy” (Oncotarget, 2017).

For one data set, the system named is red blood cells (RBC). The experiment in a line: Hemolytic analysis. To be noted: male, Sprague-Dawley, rat.
Data set [1] concerns HepG2 xenograft tumor masses. The experiment in a line: Histomorphometric and immunohistochemical analysis of tumor masses. Type of data set: in vivo, BALB/c nude mice. To be noted: for Tumor cell volumes: H&E, six histological fields; for Immunolabeled cell percentages: CD31 (PECAM-1) / Immunolabeled cell percentages: Caspase-3 / Immunolabeled cell percentages: Ki-67 / Immunolabeled cell percentages: PARP: tumor mass; for Caspase-3-immunolabeled cells: tumor of treated mice. How it is done: Xenografted tumor masses were cut and fixed in 10% neutral buffered formalin, embedded in paraffin, serially sectioned (3–4 μm), and stained with H&E prior to histopathological examinations under a light microscope (Nikon, Tokyo, Japan). The tumor cell volumes and intact tumor cell-occupied regions (%/mm^2 of tumor mass) were calculated using a computer-based automated image analyzer (iSolution FL ver 9.1, IMT i-solution Inc., Quebec, Canada).
The apoptotic markers, caspase-3, PARP, CD31, and Ki67 were investigated immunohistochemically using purified primary antibodies and biotinylated secondary antibodies, with avidin-biotin-peroxidase complex (ABC) and a peroxidase substrate kit (Vector Labs, Burlingame, CA, USA). Briefly, endogenous peroxidase activity was blocked with methanol and 0.3% H2O2 for 30 min, and non-specific immunoglobulin binding was blocked with normal horse serum blocking solution in 10 mM citrate buffer (pH 6.0). Tissue sections were incubated with primary antisera overnight at 4°C in a humidity chamber, and then incubated with biotinylated universal secondary antibodies and ABC reagents for 1 h at room temperature. Finally, sections were reacted with the peroxidase substrate kit for 3 min at room temperature. Cells were counted as immunopositive if they had > 20% immunoreactivity to the apoptotic marker (caspase-3 or PARP). The percentage region occupied by caspase-3- and PARP-positive cells within the tumor mass (%/mm^2 of tumor mass) was measured by an automated image analyzer.

Data set [2] concerns HepG2 tumor-bearing xenograft mice. Kind of data set: In vivo antitumor study. More on the design: species or system BALB/c nude mice. To be noted: 5 mg/kg i.v., days 1, 4, 7, 10. The protocol: HepG2 cell-bearing xenograft mice models were developed by subcutaneously injecting 1 × 10^7 cells/100 μl into the rear flanks of 5-week-old male BALB/c nude mice (Orient Ltd. Osan, South Korea). After two weeks of initial implantation, animals were randomly divided into six groups (n = 6 per group). Respective formulations were injected at a dose of 100 μg/100 μL in 750 μg carrier by tail vein four times every 3 days. Tumors were measured twice weekly using a digital caliper and the tumor volume (V) was calculated as, V = ((width)^2 x length)/2. The animals were sacrificed after four weeks of treatment and the primary tumor was excised, weighed, and subjected to further analysis.

Protocol for red blood cells (RBC): The experimental protocol was approved by
the Institutional Animal Ethical Committee, Yeungnam
Briefly, the rat femoral artery
was cannulated and whole blood samples were withdrawn.
centrifugation at 3500 rpm for 10 min. The degree of
Hemolytic analysis hemolysis was determined by measuring the absorbance
of the supernatant at 540 nm.
Hemolytic toxicity was determined in a male
Sprague-Dawley rat after treatment with different

As for `CC(=O)O[C@H]1C(=O)[C@@]2(C)[C@H]([C@H](OC(=O)c3ccccc3)[C@]3(O)C[C@H](OC(=O)[C@H](O)[C@@H](NC(=O)c4ccccc4)c4ccccc4)C(C)=C1C3(C)C)[C@]1(OC(C)=O)CO[C@@H]1C[C@@H]2O` [PTX, Paclitaxel], the hemolysis at 30 min, 100 µg/mL in the data set on red blood cells (RBC) was approximately 25%. Also, in data set [1], the Tumor cell volumes is recorded as 53.84 ± 3.18 %/mm2 of tumor mass, the “Immunolabeled cell percentages: CD31 (PECAM-1)” value was 30.54 ± 4.09 %/mm2 of tumor mass, the “Immunolabeled cell percentages: Caspase-3” value is given as 30.34 ± 5.00 %/mm2 of tumor mass and the “Immunolabeled cell percentages: Ki-67” value was 44.90 ± 5.31 %/mm2 of tumor mass. Besides, in data set [1], the “Immunolabeled cell percentages: PARP” value is recorded as 29.59 ± 3.04 %/mm2 of tumor mass and the “Caspase-3-immunolabeled cells” value was found to be 30.34%. Besides, in data set [2], the “Tumor growth (in words)” value is “slightly inhibited tumor growth”.
For `O=C(CCCCCCC(=O)Nc1ccccc1)NO` [VOR, Vorinostat], in the data set with red blood cells (RBC) (isolated red blood cells (RBC) suspension), the hemolysis at 30 min, 100 µg/mL was approximately 40%. Besides, in data set [1], the Tumor cell volumes is reported as 60.51 ± 10.92 %/mm2 of tumor mass, the “Immunolabeled cell percentages: CD31 (PECAM-1)” value was 29.70 ± 2.52 %/mm2 of tumor mass, the “Immunolabeled cell percentages: Caspase-3” value was 26.31 ± 7.48 %/mm2 of tumor mass and the “Immunolabeled cell percentages: Ki-67” value was 42.64 ± 4.65 %/mm2 of tumor mass. For the same compound, in data set [1], the “Immunolabeled cell percentages: PARP” value is listed as 27.64 ± 3.22 %/mm2 of tumor mass and the “Caspase-3-immunolabeled cells” value worked out at 26.31%. The “Tumor growth (in words)” value in data set [2] is on record as “slightly inhibited tumor growth”.
